The record followed here is PubChem BioAssay AID1648 (Sanford-Burnham Center for Chemical Genomics, 2009).

Active and inactive are the calls of the source. No rule for the calls is given here.

Serine/threonine-protein kinase mTOR (Homo sapiens), sequence (P42345 2015-2114): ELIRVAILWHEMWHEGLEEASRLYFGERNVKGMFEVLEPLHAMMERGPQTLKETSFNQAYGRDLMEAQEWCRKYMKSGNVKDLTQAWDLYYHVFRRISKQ

The assay concerns the target Serine/threonine-protein kinase mTOR (Homo sapiens) (UniProt P42345). The assay is described as follows: mTOR FRB domain ligand binding – biophysical, NMR (AID 1648). The conditions noted are these: NMR binding to FRB domain, chemical shift.
As for `CC(=O)C1=C(O)C(=O)NC1c1ccccc1` (centres undefined), the Kd is > 4 mM (inactive).
To `CC1(C)Cc2c(c(-c3ccco3)[nH]c(=O)c2C#N)CO1` belongs > 4 mM (inactive).
On to `NC(=O)C1CCCN1S(=O)(=O)c1ccc(F)cc1` (centres undefined), for which the Kd is > 4 mM (inactive).
Then `O=c1[nH]c(N2CCOCC2)nc2ccccc12`, with > 4 mM (inactive); and `COC(=O)CCSCC(=O)Nc1nnc(C)s1`, with > 4 mM (inactive).
To `O=c1ccc2cc(O[C@@H]3O[C@H](CO)[C@@H](O)[C@H](O)[C@H]3O)c(O)cc2o1` belongs > 4 mM (inactive); to `NC(c1ccccc1)c1ccccn1` (centres undefined), > 4 mM (inactive); to `O=C(CC1SC(=O)NC1=O)Nc1nccs1` (centres undefined), > 4 mM (inactive).
Then `CCc1c(C(=O)N2CCOCC2)csc1C`, with > 4 mM (inactive); and `Cc1cc(NC(=O)c2cccc(N3C(=O)CCC3=O)c2)no1`, with > 4 mM (inactive).
Regarding `O=C(O)c1csc2ccccc12`, the Kd was > 4 mM (inactive).
For `Nc1nc(CSc2ncn(-c3ccccc3)n2)cs1`, the Kd is > 4 mM (inactive).
To `CC(C)c1ccc(NC(=O)C(N)=O)cc1` belongs > 4 mM (inactive); to `Cn1c(=O)c2[nH]cnc2n(C)c1=O`, > 4 mM (inactive).
Then `Cn1c(=O)c2[nH]c(Nc3ccccc3)nc2n(C)c1=O`, with > 4 mM (inactive); and `Cc1ncoc1C(=O)Nc1ccccc1C(N)=O`, with > 4 mM (inactive); and `Cc1ccn(S(=O)(=O)c2ccc(C(C)(C)C)cc2)n1`, with > 4 mM (inactive).
To `CC(=O)N1CN(C(C)=O)CN(C(C)=O)C1` belongs > 4 mM (inactive); to `CC(C)c1c(O)ccc2c1CCC1[C@@](C)(C=O)CCC[C@]21C` (some centres undefined), > 4 mM (inactive).
On to `NC1=NC(=O)/C(=C/c2ccc(O)c(Cl)c2)S1`, for which the Kd was > 4 mM (inactive).
Then `C[C@]12C=CC(=O)C=C1CCC1C2CC[C@]2(C)C(=O)CCC12` (some centres undefined), with > 4 mM (inactive); and `N#Cc1c(N)c(C(=O)c2ccccc2)n2c1CCC2`, with > 4 mM (inactive).
`Cn1nnc2c(Cl)ncnc21`: the Kd is > 4 mM (inactive).
Then `CC(C)=CCC[C@](C)(O)C1CC=C(C)CC1` (some centres undefined), with > 4 mM (inactive); and `S=c1nc[nH]c2c1cnn2-c1ccccc1`, with > 4 mM (inactive); and `Cc1n[nH]c(C)c1-c1ccccc1C(=O)O`, with > 4 mM (inactive).
Then `Cc1cc(O)cc(O)c1C(=O)O`, with > 4 mM (inactive).
To `O=C1CCCN1C(=O)CN1CCOCC1` belongs > 4 mM (inactive).
As for `Cc1csc(SCC(=O)N2CCCC2)n1`, the Kd was > 4 mM (inactive).
Then `O=c1[nH]oc2ccccc12`, with > 4 mM (inactive); and `Cc1cc(N(CN2CCCC2=O)C(=O)c2ccccc2)no1`, with > 4 mM (inactive).
To `O=C(NC(=S)NC1CCS(=O)(=O)C1)c1ccccc1` (centres undefined) belongs > 4 mM (inactive); to `CN=C(C)c1c(O)n(C)c(=S)n(C)c1=O`, > 4 mM (inactive); to `NC(Cc1c[nH]c2ccccc12)C(=O)O` (centres undefined), > 4 mM (inactive).
Then `NC(=O)CCn1ncc2ccccc21`, with > 4 mM (inactive).
`O=C(Nn1cnnc1)c1cc2c(s1)CCCCC2`: the Kd was > 4 mM (inactive).
To `Cn1cc(Cl)c(C(=O)NC2CCCC2)n1` belongs > 4 mM (inactive); to `O=C(NC(=S)NN1CCOCC1)c1cccs1`, > 4 mM (inactive).
For the compound `CCn1nnnc1Oc1ccc(Cl)cc1`, the Kd was > 4 mM (inactive).
To `O=C1NC(=Nc2ccccc2)S/C1=C/c1cccnc1` belongs > 4 mM (inactive).
To `COC1=CC(C)[C@@H]2C[C@H]3OC(=O)C[C@H]4C(C)=C(OC)C(=O)C([C@@]34C)[C@@]2(C)C1=O` (some centres undefined) belongs > 4 mM (inactive); to `Cn1ccnc1C(O)c1ccccc1` (centres undefined), > 4 mM (inactive); to `CC(=O)NCC1(c2ccccc2)CCOCC1`, > 4 mM (inactive).
For `NC1=NC(=O)/C(=C\c2cccnc2)S1`, the Kd was > 4 mM (inactive).
To `CC1=CC(=O)NC2C=CC=CC12` (centres undefined) belongs > 4 mM (inactive).
Then `NCCCCN`, with > 4 mM (inactive).
To `O=C1CSC(=O)N1CNc1ccccc1` belongs > 4 mM (inactive).
With `Nc1ccccc1C(=O)N1CCNC(=O)C1`, the Kd is > 4 mM (inactive).
Take `Nc1ccc2c(C(F)(F)F)cc(=O)oc2c1`: the Kd is > 4 mM (inactive).
To `C[C@@H]1CC[C@]2(C(=O)O)CC[C@]3(C)C(=CCC4[C@@]5(C)CC[C@H](O)C(C)(C)C5CC[C@]43C)C2[C@H]1C` (some centres undefined) belongs > 4 mM (inactive); to `Oc1ccc(C2SCCS2)cc1`, > 4 mM (inactive); to `N#CC(O[C@@H]1O[C@H](CO[C@@H]2O[C@H](CO)[C@@H](O)[C@H](O)[C@H]2O)[C@@H](O)[C@H](O)[C@H]1O)c1ccccc1` (some centres undefined), > 4 mM (inactive).
Take `S=C(Cc1cccnc1)N1CCOCC1`: the Kd was > 4 mM (inactive).
To `CCc1cc2c(SCC(=O)O)ncnc2s1` belongs > 4 mM (inactive); to `CCOC(=O)C1C(=O)C2CCN1CC2` (centres undefined), > 4 mM (inactive); to `Oc1cccc2[nH]ccc12`, > 4 mM (inactive).
To `CC(=O)Nc1ccc(Oc2nc(C)cc(C)n2)cc1` belongs > 4 mM (inactive); to `O=C(O)c1ccc(-n2cccn2)cc1`, > 4 mM (inactive).
To `CCC(CCC(C)[C@H]1CCC2C3CC=C4C[C@@H](O)CC[C@]4(C)C3CC[C@@]21C)C(C)C` (some centres undefined) belongs > 4 mM (inactive); to `CC(=O)Nc1ccc(S(=O)(=O)NC2=NCCS2)cc1`, > 4 mM (inactive).
Take `CCOC(=O)c1csc(N)n1`: the Kd is > 4 mM (inactive).
As to `Cc1onc(-c2c(Cl)cccc2Cl)c1C(N)=O`, the Kd was > 4 mM (inactive).
Then `Cc1n[nH]c(C)c1CN`, with > 4 mM (inactive).
To `OCCN1CCN(C(=S)c2ccc(Cl)cc2)CC1` belongs > 4 mM (inactive).
To `Cc1n[nH]c(C)c1N` belongs > 4 mM (inactive).
As for `O=C1C=CC2=C3c4cc(O)c(O)cc4CC3(O)COC2=C1O` (centres undefined), the Kd was > 4 mM (inactive).
To `OC1CC(c2ccccc2)NC2(CCCC2)C1` (centres undefined) belongs > 4 mM (inactive); to `OCCNc1nc2ccc(Cl)cc2[nH]1`, > 4 mM (inactive); to `Clc1ccccc1OCCn1ccnc1`, > 4 mM (inactive).
Then `Cn1c(=O)[nH]c2nc[nH]c2c1=O`, with > 4 mM (inactive); and `Cc1cc(NC(=O)NCCCSc2nncn2C)no1`, with > 4 mM (inactive); and `OCc1ccc2c(c1)CCO2`, with > 4 mM (inactive).
For `Nc1cc(N)nc(SCc2ccccc2)n1`, the Kd is > 4 mM (inactive).
To `O=C(O)CCCC(=O)Nc1nccs1` belongs > 4 mM (inactive); to `Nc1ccc(Oc2ccccc2)nc1`, > 4 mM (inactive); to `O=C(O)c1csc(-c2cccs2)n1`, > 4 mM (inactive).
`COC(=O)c1cncn1C`: the Kd is > 4 mM (inactive).
Regarding `CC(=O)NC(=S)Nc1ccccc1N1CCOCC1`, the Kd was > 4 mM (inactive).
Then `CC(=O)Nc1ccc2c(c1)C(=O)N(C1CCCCC1)C2=O`, with > 4 mM (inactive).
Then `O=C(NCCCO)c1ccncc1`, with > 4 mM (inactive); and `Nc1cc(F)ccc1-n1ccnc1`, with > 4 mM (inactive).
Then `COc1cc2c(c(OC)c1OC)-c1ccc(OC)c(=O)cc1[C@@H](NC(C)=O)CC2`, with > 4 mM (inactive); and `CC(C)(C)Cc1nc(-c2ccccn2)no1`, with > 4 mM (inactive); and `C=C[C@@](C)(O)CCC1C(=C)C[C@H](OC(C)=O)C2C(C)(C)CCCC12C` (some centres undefined), with > 4 mM (inactive).
Turning to `NNc1ncnc2sccc12`, the Kd is > 4 mM (inactive).
To `Nn1cnn2c(SCc3ccccc3)nnc12` belongs > 4 mM (inactive); to `CCOC(=O)Cn1cnc2c1c(=O)[nH]c(=O)n2C`, > 4 mM (inactive).
To `CC(=O)c1cccc(NS(=O)(=O)N(C)C)c1` belongs > 4 mM (inactive); to `CC(=O)Nc1ccc(Nc2nnc(C)c(=O)[nH]2)cc1`, > 4 mM (inactive).
Turning to `c1ccc(Cn2c(Nn3cnnc3)nc3ccccc32)cc1`, the Kd is > 4 mM (inactive).
For `CCN1CC2(C)CC[C@H](OC)[C@]34C2[C@H](O)C2(OCO[C@@]25C[C@H](OC)[C@H]2C[C@]3(O)C5[C@H]2O)C14`, the Kd was > 4 mM (inactive).
To `O=C(O)C1C(=O)NCC1c1ccccc1` (centres undefined) belongs > 4 mM (inactive); to `c1ccc(-c2n[nH]c(-c3ccccn3)n2)nc1`, > 4 mM (inactive); to `CCOC(=O)C1CCN(Cc2ccccc2)CC1`, > 4 mM (inactive).
In the case of `C/C1=C\CCC(=O)C2CC(C)(C)C2CC1` (centres undefined), the Kd was > 4 mM (inactive).
For `COC(=O)C[C@H]1C2(C)CC34OC5(C)O[C@@]6([C@H](OC(C)=O)C(OC(C)=O)[C@]7(C)C(/C(=C(/O)C(C)C)C(=O)O[C@H]7c7ccoc7)[C@@]6(O5)[C@H](OC(C)=O)[C@@]3(O)C2OC(=O)C(C)C)[C@]14C` (some centres undefined), the Kd was > 4 mM (inactive).
Then `O=c1[nH]cc(S(=O)(=O)Nc2ccccc2)c(=O)[nH]1`, with > 4 mM (inactive); and `COC(=O)c1ccc(N2CCCC2)nc1`, with > 4 mM (inactive).
As to `O=C(CN1CCOCC1)Nc1cccc(Br)c1`, the Kd is > 4 mM (inactive).
Then `COC(=O)Cc1cccc(OC)c1`, with > 4 mM (inactive); and `O=C(O)CSc1cccc2cccnc12`, with > 4 mM (inactive).
Then `O=C(O)CCN1CCOCC1`, with > 4 mM (inactive); and `CN1CC(=O)Nc2ccc([N+](=O)[O-])cc2C1=O`, with > 4 mM (inactive).
To `CCOc1ccc(C)cc1S(=O)(=O)n1ccc(C)n1` belongs > 4 mM (inactive).
